Experimental data as given in ChEMBL document CHEMBL1201862, “PubChem BioAssay data set” (2004).
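Following 48 hours of exposure in 96-well plates, responses at five concentrations were used to interpolate endpoints linearly. GI50: concentration for 50% inhibition of growth.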 Activity calls are given as the source filed them. Cut-off read from the data, not from the text of the source: active = GI50 up to about 1.1 µM and inactive = higher.

How the values were obtained:
Assay in all cases: growth of human tumour cells (NCI), 48 h
[1] = system: 786-0
[2] = system: EKVX
[3] = system: A498
[4] = system: NCI-H23
[5] = system: CAKI-1
[6] = system: UACC-257
[7] = system: SF-539
[8] = system: U-251
[9] = system: NCI-H522
[10] = system: MDA-N
[11] = system: CCRF-CEM
[12] = system: SF-295
[13] = system: SNB-75
[14] = system: OVCAR-3
[15] = system: UACC-62
[16] = system: OVCAR-4
[17] = system: MDA-MB-231
[18] = system: UO-31
[19] = system: SK-MEL-2
[20] = system: SW-620
[21] = system: HOP-62
[22] = system: HT-29
[23] = system: NCI-H460
[24] = system: Hs-578T
[25] = system: A549
[26] = system: IGROV-1
[27] = system: MOLT-4
[28] = system: COLO 205
[29] = system: OVCAR-5
[30] = system: HCT-15
[31] = system: T47D
[32] = system: HL-60
[33] = system: SR
[34] = system: TK-10
[35] = system: SK-MEL-28
[36] = system: NCI-H226
[37] = system: KM12
[38] = system: RPMI-8226
[39] = system: DU-145
[40] = system: SN12C
[41] = system: SF-268
[42] = system: MDA-MB-435
[43] = system: HCC 2998
[44] = system: ACHN
[45] = system: SK-OV-3
[46] = system: NCI/ADR-RES
[47] = system: SNB-19
[48] = system: PC-3
[49] = system: M14
[50] = system: OVCAR-8
[51] = system: HCT-116
[52] = system: SK-MEL-5
[53] = system: K562
[54] = system: MCF7
[55] = system: Malme-3M
[56] = system: LOX IMVI
[57] = system: BT-549
[58] = system: HOP-92
[59] = system: RXF 393

Compound: C/C1=C\CC[C@@]2(C)O[C@@H]2C[C@@H](C2(C)CO2)CC/C(C)=C/CC1 (stereo not given in full)
- GI50 [1]: 16.8 µM (inactive)
- GI50 [2]: 13.8 µM (inactive)
- GI50 [3]: > 100 µM (inactive)
- GI50 [4]: 19.4 µM (inactive)
- GI50 [5]: 19.6 µM (inactive)
- GI50 [6]: 36.8 µM (inactive)
- GI50 [7]: 21.7 µM (inactive)
- GI50 [8]: 15.4 µM (inactive)
- GI50 [9]: 23.7 µM (inactive)
- GI50 [10]: 25.6 µM (inactive)
- GI50 [11]: 19.8 µM (inactive)
- GI50 [12]: 22.1 µM (inactive)
- GI50 [13]: 26.2 µM (inactive)
- GI50 [14]: 23.8 µM (inactive)
- GI50 [15]: 16 µM (inactive)
- GI50 [16]: 37.4 µM (inactive)
- GI50 [17]: 18.5 µM (inactive)
- GI50 [18]: 25.2 µM (inactive)
- GI50 [19]: 27.9 µM (inactive)
- GI50 [20]: 32.8 µM (inactive)
- GI50 [21]: 30.3 µM (inactive)
- GI50 [22]: 34.4 µM (inactive)
- GI50 [23]: 19.1 µM (inactive)
- GI50 [24]: 19.5 µM (inactive)
- GI50 [25]: 16.1 µM (inactive)
- GI50 [26]: 32.9 µM (inactive)
- GI50 [27]: 47.2 µM (inactive)
- GI50 [28]: 15.6 µM (inactive)
- GI50 [29]: 22.3 µM (inactive)
- GI50 [30]: 10.3 µM
- GI50 [31]: 32.5 µM (inactive)
- GI50 [32]: 27.1 µM (inactive)
- GI50 [33]: 33 µM (inactive)
- GI50 [34]: 15.4 µM (inactive)
- GI50 [35]: 21.7 µM (inactive)
- GI50 [36]: 15.2 µM (inactive)
- GI50 [37]: 17.5 µM (inactive)
- GI50 [38]: 31 µM (inactive)
- GI50 [39]: 24.8 µM (inactive)
- GI50 [40]: 17.7 µM (inactive)
- GI50 [41]: 17.1 µM (inactive)
- GI50 [42]: 20.6 µM (inactive)
- GI50 [43]: 15 µM (inactive)
- GI50 [44]: 17.9 µM (inactive)
- GI50 [45]: 49.3 µM (inactive)
- GI50 [46]: 20.4 µM (inactive)
- GI50 [47]: 19.4 µM (inactive)
- GI50 [48]: 22 µM (inactive)
- GI50 [49]: 22.8 µM (inactive)
- GI50 [50]: 19.1 µM (inactive)
- GI50 [51]: 20.4 µM (inactive)
- GI50 [52]: 21.7 µM (inactive)
- GI50 [53]: 34.4 µM (inactive)
- GI50 [54]: 21.7 µM (inactive)
- GI50 [55]: 15.3 µM (inactive)
- GI50 [56]: 14.4 µM (inactive)
- GI50 [57]: 21.2 µM (inactive)
- GI50 [58]: 33.7 µM (inactive)

Compound: CCN1CCN(c2ccc(Nc3ccnc4ccc5c(nnn5C)c34)cc2)CC1
- GI50 [1]: 3.86 µM (inactive)
- GI50 [2]: 13.7 µM (inactive)
- GI50 [3]: 14.8 µM (inactive)
- GI50 [4]: 11.6 µM (inactive)
- GI50 [5]: 5.48 µM (inactive)
- GI50 [6]: 13.2 µM (inactive)
- GI50 [7]: 2.98 µM (inactive)
- GI50 [8]: 5.69 µM (inactive)
- GI50 [9]: 1.1 µM (active)
- GI50 [10]: 3.52 µM (inactive)
- GI50 [11]: 4.6 µM (inactive)
- GI50 [12]: 8.2 µM (inactive)
- GI50 [59]: 7.19 µM (inactive)
- GI50 [13]: 13.9 µM (inactive)
- GI50 [14]: 5.56 µM (inactive)
- GI50 [15]: 13.7 µM (inactive)
- GI50 [16]: 7.23 µM (inactive)
- GI50 [17]: 8.55 µM (inactive)
- GI50 [18]: 10.2 µM (inactive)
- GI50 [19]: 12.2 µM (inactive)
- GI50 [20]: 3.93 µM (inactive)
- GI50 [21]: 5.05 µM (inactive)
- GI50 [22]: 3.72 µM (inactive)
- GI50 [23]: 2.97 µM (inactive)
- GI50 [24]: 13.1 µM (inactive)
- GI50 [25]: 7.83 µM (inactive)
- GI50 [26]: 12.9 µM (inactive)
- GI50 [27]: 4.45 µM (inactive)
- GI50 [28]: 2.78 µM (inactive)
- GI50 [29]: 9.16 µM (inactive)
- GI50 [30]: 3.95 µM
- GI50 [31]: 16 µM (inactive)
- GI50 [32]: 4.94 µM (inactive)
- GI50 [33]: 2.51 µM (inactive)
- GI50 [34]: 15.3 µM (inactive)
- GI50 [35]: 11.1 µM (inactive)
- GI50 [37]: 3.51 µM (inactive)
- GI50 [39]: 5.25 µM (inactive)
- GI50 [40]: 3.53 µM (inactive)
- GI50 [41]: 6.46 µM (inactive)
- GI50 [42]: 5.46 µM (inactive)
- GI50 [43]: 1.58 µM (inactive)
- GI50 [44]: 2.99 µM (inactive)
- GI50 [45]: 11.4 µM (inactive)
- GI50 [46]: 9.14 µM (inactive)
- GI50 [47]: 3.15 µM (inactive)
- GI50 [48]: 5.28 µM (inactive)
- GI50 [49]: 10.7 µM (inactive)
- GI50 [50]: 13.1 µM (inactive)
- GI50 [51]: 3.44 µM (inactive)
- GI50 [52]: 11 µM (inactive)
- GI50 [53]: 3.61 µM (inactive)
- GI50 [54]: 4.44 µM (inactive)
- GI50 [55]: 5.89 µM (inactive)
- GI50 [56]: 3.14 µM (inactive)
- GI50 [57]: 17.3 µM (inactive)
- GI50 [58]: 4.8 µM (inactive)
